Molecules are shown by their SMILES.

In general, IC50 refers to the concentration that gives 50% inhibition.

The target of test [1] is T1, FLK-1 receptor (Mus musculus, UniProt P35918).
T1 construct: expressed in transfected cells; host or cells: NIH3T3 C7#3 cells
Kind of test: FLK-1 ELISA (cellular/catalytic). It is filed as cell-based. To be noted: 50% inhibition of PTK activity compared to that in a control; read-out: FLK KINASE IC50. On the procedure: (§1) The cellular/catalytic assays described herein are performed in an ELISA format. The general procedure is as follows: a compound is introduced to cells expressing the test kinase, either naturally or recombinantly, for a selected period of time after which, if the test kinase is a receptor, a ligand known to activate the receptor's activity is added. The cells are lysed and the lysate is transferred to the wells of an ELISA plate previously coated with a specific antibody recognizing the substrate of the enzymatic phosphorylation reaction. Non-substrate components of the cell lysate are washed away and the amount of phosphorylation on the substrate is detected with an antibody specifically recognizing phosphotyrosine and is compared with that of control cells that were not contacted with the test compound.
An ELISA assay is conducted to measure the kinase activity of the FLK-1 receptor and more specifically, the inhibition or activation of TK activity on the FLK-1 receptor. Specifically, the following assay can be conducted to measure kinase activity of the FLK-1 receptor in cells genetically engineered to express Flk-1.
k. NIH3T3 C7#3 Cells (FLK-1 expressing cells);
1. Coat Corning 96-well ELISA plates with 1.0 μg per well Cappel Anti-rabbit IgG antibody in 0.1M Na2CO3 pH 9.6. Bring final volume to 150 μl per well. Coat plates overnight at 4° C. […]
In general terms: An ELISA detects its analyte on a solid surface through an enzyme-linked reagent.

Test [2] has as its target T2, human EGF-R (Homo sapiens, UniProt P00533).
T2 construct: expressed in transfected cells; host or cells: NIH 3T3/C7 cell line
Briefly: EGF Receptor ELISA (cellular/catalytic). The conditions noted are these: 50% inhibition of PTK activity compared to that in a control; read-out: EGFR KINASE IC50. It counts as cell-based. The protocol:
as §1
EGF Receptor kinase activity in cells genetically engineered to express human EGF-R can be measured as described below:
1. NIH 3T3/C7 cell line (Honegger, et al., Cell 51:199-209, 1987) can be use for this assay.
3. Resuspend cells in seeding medium (DMEM, 0.5% bovine serum), and count the cells using trypan blue. […]
12. The maximal phosphotyrosine signal is determined by subtracting the value of the negative controls from the positive controls. The percent inhibition of phosphotyrosine content for extract-containing wells is then calculated, after subtraction of the negative controls.

T2 sequence (P00533 25-1210): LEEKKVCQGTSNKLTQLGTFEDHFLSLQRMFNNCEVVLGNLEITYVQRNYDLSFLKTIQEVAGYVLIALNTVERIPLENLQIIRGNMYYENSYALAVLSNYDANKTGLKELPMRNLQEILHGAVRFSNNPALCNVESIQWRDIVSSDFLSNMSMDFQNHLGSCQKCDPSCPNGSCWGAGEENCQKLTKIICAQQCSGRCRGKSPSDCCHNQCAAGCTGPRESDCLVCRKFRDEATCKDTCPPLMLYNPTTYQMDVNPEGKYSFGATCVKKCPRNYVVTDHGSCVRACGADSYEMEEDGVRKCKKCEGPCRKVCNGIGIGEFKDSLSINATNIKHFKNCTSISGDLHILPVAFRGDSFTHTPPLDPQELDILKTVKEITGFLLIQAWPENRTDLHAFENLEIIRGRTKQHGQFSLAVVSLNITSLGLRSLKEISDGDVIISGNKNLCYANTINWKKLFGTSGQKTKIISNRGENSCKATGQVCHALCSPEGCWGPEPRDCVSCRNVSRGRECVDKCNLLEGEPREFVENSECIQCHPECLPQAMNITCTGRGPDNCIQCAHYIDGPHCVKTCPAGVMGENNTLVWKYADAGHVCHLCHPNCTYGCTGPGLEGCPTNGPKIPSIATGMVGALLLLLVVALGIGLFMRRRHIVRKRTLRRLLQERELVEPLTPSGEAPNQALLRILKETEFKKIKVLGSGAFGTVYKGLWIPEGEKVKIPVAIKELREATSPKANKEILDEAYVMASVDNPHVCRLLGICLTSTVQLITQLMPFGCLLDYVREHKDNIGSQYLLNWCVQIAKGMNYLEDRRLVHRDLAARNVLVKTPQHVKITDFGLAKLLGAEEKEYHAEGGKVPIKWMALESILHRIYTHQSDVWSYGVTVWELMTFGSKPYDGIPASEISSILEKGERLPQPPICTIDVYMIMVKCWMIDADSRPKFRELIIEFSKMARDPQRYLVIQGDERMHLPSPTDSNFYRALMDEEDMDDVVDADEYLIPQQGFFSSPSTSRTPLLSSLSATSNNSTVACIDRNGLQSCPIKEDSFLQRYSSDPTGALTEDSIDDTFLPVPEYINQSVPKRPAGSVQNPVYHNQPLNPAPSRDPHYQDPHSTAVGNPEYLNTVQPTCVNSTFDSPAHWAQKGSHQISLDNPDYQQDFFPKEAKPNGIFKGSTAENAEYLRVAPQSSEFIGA
T1 sequence (P35918 20-1345): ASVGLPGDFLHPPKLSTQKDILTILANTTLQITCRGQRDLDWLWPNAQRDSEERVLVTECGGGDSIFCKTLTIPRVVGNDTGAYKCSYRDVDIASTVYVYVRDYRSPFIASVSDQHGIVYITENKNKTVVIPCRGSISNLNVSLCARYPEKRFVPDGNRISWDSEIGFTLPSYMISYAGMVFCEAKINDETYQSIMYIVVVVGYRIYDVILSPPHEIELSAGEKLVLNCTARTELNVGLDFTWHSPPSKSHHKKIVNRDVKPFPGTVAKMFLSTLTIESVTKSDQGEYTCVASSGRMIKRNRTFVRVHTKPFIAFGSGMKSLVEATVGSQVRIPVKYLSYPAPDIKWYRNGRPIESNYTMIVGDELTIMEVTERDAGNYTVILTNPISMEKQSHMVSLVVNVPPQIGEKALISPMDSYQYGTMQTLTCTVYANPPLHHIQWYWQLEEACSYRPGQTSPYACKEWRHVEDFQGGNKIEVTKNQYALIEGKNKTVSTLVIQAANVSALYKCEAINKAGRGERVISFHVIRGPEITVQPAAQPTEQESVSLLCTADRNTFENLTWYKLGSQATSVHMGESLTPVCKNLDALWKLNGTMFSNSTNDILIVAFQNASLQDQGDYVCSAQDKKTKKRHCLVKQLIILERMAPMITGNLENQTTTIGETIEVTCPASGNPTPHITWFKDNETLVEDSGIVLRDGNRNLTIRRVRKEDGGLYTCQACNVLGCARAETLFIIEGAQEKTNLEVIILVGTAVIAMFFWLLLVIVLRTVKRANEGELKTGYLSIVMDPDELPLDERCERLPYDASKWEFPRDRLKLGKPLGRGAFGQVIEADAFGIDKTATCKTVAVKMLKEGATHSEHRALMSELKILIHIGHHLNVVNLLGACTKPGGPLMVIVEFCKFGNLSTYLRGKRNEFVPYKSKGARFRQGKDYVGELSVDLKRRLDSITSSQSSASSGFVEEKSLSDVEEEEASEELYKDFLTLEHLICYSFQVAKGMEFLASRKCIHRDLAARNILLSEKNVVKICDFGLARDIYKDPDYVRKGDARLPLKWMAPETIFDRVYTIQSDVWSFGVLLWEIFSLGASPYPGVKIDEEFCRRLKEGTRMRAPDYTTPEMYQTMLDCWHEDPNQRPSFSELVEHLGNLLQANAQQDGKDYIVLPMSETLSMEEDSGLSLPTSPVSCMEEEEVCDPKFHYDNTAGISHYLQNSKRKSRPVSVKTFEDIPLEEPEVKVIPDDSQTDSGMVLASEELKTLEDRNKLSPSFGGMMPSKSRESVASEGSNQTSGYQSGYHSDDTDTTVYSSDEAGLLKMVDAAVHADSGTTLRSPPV

`Cc1nc2c(nc1C)CC1=NC(c3ccccc3)=NC1=C2` [6,7-dimethyl-2-phenylimidazo[4,5-g]quinoxaline]: the 50% inhibitory concentration (IC50) was 88.4 µM in test [1] and > 100 µM in test [2].

These data come from US6656940B2, “Tricyclic quinoxaline derivatives as protein tyrosine kinase inhibitors” (Sugen, Inc., priority 1997, dated 2003).
